# Patent US5397774A, “Pyrazolopyrimidine and pyrimidinyl bisphosphonic esters as anti-inflammatories” (The Upjohn Company, priority 1993, dated 1995)
# Counter-ions that a name gives are not always drawn.
# System: DTH granuloma (DTH GRA) lesion in mBSA-sensitized mice
# Experiment: Delayed Type Hypersensitivity Granuloma Assay (DTH GRA) model for inflammation
# Assay type: in vivo, mouse
# Conditions: 216 h; Table 2, Formula 2 compounds; 10 mg/kg PO; mouse DTH granuloma excised after nine days
# Method: This assay is described by Dunn, C.
# Briefly, mBSA-sensitized mice have a DTH granuloma (DTH GRA) lesion induced by subcutaneously implanting a mBSA-soaked filter which is excised after nine days. Compounds are administered to the mice to determine their effect on the lesions. The results are recorded as percent inhibition. […] Inhibition of 10 to 20% is considered to indicate anti-granuloma activity.
# Again, as in Table 1, the results are recorded as percent inhibition. […] Inhibition of 10 to 20% is considered to indicate anti-granuloma activity. […]
row,Molecule,inhibition in vivo at 10 mg/kg
1,"Cn1c(CCC(P2(=O)OCC(C)(C)CO2)P2(=O)OCC(C)(C)CO2)nc(-c2cc(F)c(N3CCCCC3)c(F)c2F)cc1=O [mm, (3-(2-(3-Methyl-4-oxo-6-(2,3,5-trifluoro-4-piperidinophenyl)-4(3H)-pyrimidinyl))-propylidine)bis(5,5-dimethyl-2,2'-dioxide-1,3,2-dioxaphosphorinane)]",50%

# Same assay, conditions: Mus musculus, 216 h; Table 2, Formula 2 compounds; tested at 1 mg/kg, PO
row,Molecule,inhibition in vivo at 1 mg/kg
1,"Cn1c(CCC(P(=O)(O)O)P(=O)(O)O)nc(-c2ccccc2)cc1=O [q, (3-(2-(3-Methyl-4-oxo-6-phenyl-4(3H)-pyrimidinyl))-propylidine)bisphosphonic acid disodium salt]",57%

# Same assay, conditions: Mus musculus, po, 216 h, Table 1, Formula 1 compounds; 10 mg/kg PO; mouse DTH granuloma excised after nine days
row,Molecule,inhibition in vivo at 10 mg/kg
1,"CCOP(=O)(OCC)C(CCc1cc(C)nc2cc(-c3ccccc3)nn12)P(=O)(OCC)OCC [i, (3-(5-Methyl-2-phenyl-pyrazolo(1,5-a)pyrimidin-7-yl)-propylidene)bisphosphonic acid tetraethyl ester]",47%
2,"COP(=O)(OC)C(CCc1cc(C)nc2c(C#N)c(C)nn12)P(=O)(OC)OC [m, (3-(3-Cyano-2,5-dimethyl-pyrazolo(1,5-a)pyrimidin-7-yl)-propylidene)bisphosphonic acid tetramethyl ester]",41%
3,"CCCCCCOc1cc2nc(C)cc(CCC(P(=O)(OCC)OCC)P(=O)(OCC)OCC)n2n1 [h, (3-(2-Hexyloxy-5-methyl-pyrazolo(1,5-a)pyrimidin-7-yl)propylidene)-bisphosphonic acid tetraethyl ester]",49%
4,"CCOP(=O)(OCC)C(CCc1cc(C)nc2c(I)c(-c3ccccc3)nn12)P(=O)(OCC)OCC [j, (3-(3-Iodo-5-methyl-2-phenyl-pyrazolo(1,5-a)pyrimidin-7-yl)-propylidene)bisphosphonic acid tetraethyl ester]",53%
5,"CCOP(=O)(OCC)C(CCc1cc(C)nc2c([N+](=O)[O-])c(C)nn12)P(=O)(OCC)OCC [e, (3-(3-Nitro-2,5-dimethyl-pyrazolo(1,5-a)pyrimidin-7-yl)-propylidene)bisphosphonic acid tetraethyl ester]",41%
6,"CCOP(=O)(OCC)C(CCc1cc(C)nc2c(Br)c(C)nn12)P(=O)(OCC)OCC [d, (3-(3-Bromo-2,5-dimethyl-pyrazolo(1,5-a)pyrimidin-7-yl)-propylidene)bisphosphonic acid tetraethyl ester]",44%
7,"CCOP(=O)(OCC)C(CCc1cc(C)nc2c(C#N)c(C)nn12)P(=O)(OCC)OCC [a, (3-(3-Cyano-2,5-dimethyl-pyrazolo(1,5-a)pyrimidin-7-yl)propylidene)bisphosphonic acid tetraethyl ester]",46%
8,"CCOP(=O)(OCC)C(CCc1c(Cl)c(C)nc2c(C#N)c(C)nn12)P(=O)(OCC)OCC [o, (3-(6-Chloro-3-cyano-2,5-dimethyl-pyrazolo(1,5-a)pyrimidin-7-yl)-propylidene)bisphosphonic acid tetraethyl ester]",53%
9,"CCOP(=O)(OCC)C(CCc1cc(C)nc2c(C#N)c(-c3ccccc3)nn12)P(=O)(OCC)OCC [c, (3-(3-Cyano-5-methyl-2-phenyl-pyrazolo(1,5-a)pyrimidin-7-yl)-propylidene)bisphosphonic acid tetraethyl ester]",26%

# Same assay, conditions: Mus musculus, po, 216 h, Table 1, Formula 1 compounds; PO; footnote a: tested at 50 mg/kg
row,Molecule,inhibition in vivo at 50 mg/kg
1,"CCOP(=O)(OCC)C(CCc1cc(C)nc2c(Cl)c(-c3ccccc3)nn12)P(=O)(OCC)OCC [k, (3-(3-Chloro-5-methyl-2-phenyl-pyrazolo(1,5-a)pyrimidin-7-yl)-propylidene)bisphosphonic acid tetraethyl ester]",31%
2,"CCOP(=O)(OCC)C(CCc1cc(C)nc2c(Br)c(-c3ccccc3)nn12)P(=O)(OCC)OCC [l, (3-(3-Bromo-5-methyl-2-phenyl-pyrazolo(1,5-a)pyrimidin-7-yl)-propylidene)bisphosphonic acid tetraethyl ester]",23%

# Same assay, conditions: Mus musculus, po, 216 h, Table 2, Formula 2 compounds; 10 mg/kg PO; mouse DTH granuloma excised after nine days
row,Molecule,inhibition in vivo at 10 mg/kg
1,"CCOP(=O)(OCC)C(CCc1nc(-c2cccc(C)c2)cc(=O)n1C)P(=O)(OCC)OCC [v, (3-(2-(3-Methyl-4-oxo-6-(3-methyl-phenyl)-4(3H)-pyrimidinyl))-propylidine)bisphosphonic acid tetraethyl ester]",40%
2,"CCOP(=O)(OCC)C(CCc1nc(-c2cccc(F)c2)cc(=O)n1C)P(=O)(OCC)OCC [s, (3-(2-(3-Methyl-4-oxo-6-(3-fluoro-phenyl)-4(3H)-pyrimidinyl))-propylidine)bisphosphonic acid tetraethyl ester]",32%
3,"CCOP(=O)(O)C(CCc1nc(-c2ccccc2)cc(=O)n1C)P(=O)(OCC)OCC (stereo not drawn) [rr, (3-(2-(3-Methyl-4-oxo-6-phenyl-4(3H)-pyrimidinyl))-propylidine)bisphosphonic acid triethyl ester sodium salt]",50%
4,"CCOP(=O)(OCC)C(CCc1nc(-c2ccc(N(C)C)cc2)cc(=O)n1C)P(=O)(OCC)OCC [cc, (3-(2-(3-Methyl-4-oxo-6-(4-dimethylaminophenyl)-4(3H)-pyrimidinyl))-propylidine)bisphosphonic acid tetraethyl ester]",63%
5,"CCOP(=O)(OCC)C(CCc1nc(-c2ccc(OC)cc2)cc(=O)n1C)P(=O)(OCC)OCC [bb, (3-(2-(3-Methyl-4-oxo-6-(4-methoxyphenyl)-4(3H)-pyrimidinyl))-propylidine)bisphosphonic acid tetraethyl ester]",22%
6,"CCCn1c(CCC(P(=O)(OCC)OCC)P(=O)(OCC)OCC)nc(-c2ccccc2)cc1=O [jj, (3-(2-(3-Propyl-4-oxo-6-phenyl-4(3H)-pyrimidinyl))-propylidine)bisphosphonic acid tetraethyl ester]",41%
7,"CCOP(=O)(OCC)C(CCc1nc(-c2ccccc2)cc(=O)n1C)P(=O)(OCC)OCC [p, (3-(2-(3-Methyl-4-oxo-6-phenyl-4(3H)-pyrimidinyl))-propylidine)bisphosphonic acid tetraethyl ester]",60%
8,"CCOP(=O)(OCC)C(CCc1nc(-c2cccc(OC)c2)cc(=O)n1C)P(=O)(OCC)OCC [w, (3-(2-(3-Methyl-4-oxo-6-(3-methoxy-phenyl)-4(3H)-pyrimidinyl))-propylidine) bisphosphonic acid tetraethyl ester]",13%
9,"CCOP(=O)(OCC)C(CCc1nc(-c2ccccc2)c(Br)c(=O)n1C)P(=O)(OCC)OCC [y, (3-(2-(3-Methyl-4-oxo-5-bromo-6-phenyl-4(3H)-pyrimidinyl))-propylidine)bisphosphonic acid tetraethyl ester]",7%
10,"CCOP(=O)(OCC)C(CCc1nc(-c2cccc(C(F)(F)F)c2)cc(=O)n1C)P(=O)(OCC)OCC [x, (3-(2-(3-Methyl-4-oxo-6-(3-trifluoromethyl-phenyl)-4(3H)-pyrimidinyl))propylidine)bisphosphonic acid tetraethyl ester]",6%
11,"COP(=O)(OC)C(CCc1nc(-c2ccccc2)cc(=O)n1C)P(=O)(OC)OC [z, (3-(2-(3-Methyl-4-oxo-6-phenyl-4(3H)-pyrimidinyl))-propylidine)bisphosphonic acid tetramethyl ester]",36%
12,"CCOP(=O)(OCC)C(CCc1nc(-c2ccccc2)cc(=O)n1Cc1ccccc1)P(=O)(OCC)OCC [r, (3-(2-(3-Benzyl-4-oxo-6-phenyl-4(3H)-pyrimidinyl))-propylidine)bisphosphonic acid tetraethyl ester]",17%
13,"CCOc1ccc(-c2cc(=O)n(C)c(CCC(P(=O)(OCC)OCC)P(=O)(OCC)OCC)n2)cc1 [ee, (3-(2-(3-Methyl-4-oxo-6-(4-ethoxyphenyl)-4(3H)-pyrimidinyl))-propylidine)bisphosphonic acid tetraethyl ester]",46%
14,"CCOP(=O)(OCC)C(CCc1nc(-c2ccc(Br)cc2)cc(=O)n1C)P(=O)(OCC)OCC [aa, (3-(2-(3-Methyl-4-oxo-6-(4-bromophenyl)-4(3H)-pyrimidinyl))-propylidine)bisphosphonic acid tetraethyl ester]",20%
15,"CCOP(=O)(OCC)C(CCc1nc(-c2ccccc2)cc(=O)n1CC)P(=O)(OCC)OCC [ii, (3-(2-(3-Ethyl-4-oxo-6-phenyl-4(3H)-pyrimidinyl))-propylidine)bisphosphonic acid tetraethyl ester]",12%

# Same assay, conditions: Table 2, Formula 2 compounds; 10 mg/kg PO; mouse DTH granuloma excised after nine days
row,Molecule,% Inhibition
1,3-(7-Chloro-3-(2-fluoro-phenyl)-4(3H)-quinazolinone)-propylidine)bisphosphonic acid tetraethyl ester [qq],29%
2,"3-(7-Chloro-3-(α,α,α-trifluoro-o-tolyl)-4(3H)-quinazolinone)-propylidine)bisphosphonic acid tetraethyl ester [pp]",24%
3,CCOP(=O)(OCC)C(CCc1nc2cc(Cl)ccc2c(=O)n1C)P(=O)(OCC)OCC [oo],41%

# Same assay, conditions: Table 2, Formula 2 compounds; 10 mg/kg PO; mouse DTH granuloma excised after nine days; 10 mg/kg
row,Molecule,% Inhibition
1,"C=CCn1c(CCC(P(=O)(OCC)OCC)P(=O)(OCC)OCC)nc(-c2ccccc2)cc1=O [hh, (3-(2-(3-Allyl-4-oxo-6-phenyl-4(3H)-pyrimidinyl))-propylidine)bisphosphonic acid tetraethyl ester]",11%
2,"CCOP(=O)(OCC)C(CCc1nc(-c2ccccc2)cc(=O)n1Cc1ccccc1)P(=O)(OCC)OCC [gg, (3-(2-(3-Benzyl-4-oxo-6-phenyl-4(3H)-pyrimidinyl))-propylidine)bisphosphonic acid tetraethyl ester]",20%
